Laboratory results as given in patent US20240207267A1, “(R)-Glutarimide CRBN Ligands and Methods of Use” (BeiGene Switzerland GmbH, priority 2021, published 2024).

Tests used:
[1] = target: EGFR L858R/T790M/C797S (BaF3-LTC cells) (Homo sapiens (Human), UniProt P00533, C797S/L858R/T790M); assay: EGFR degradation HTRF assay in BaF3-LTC cells; assay type: cell-based; conditions: 16 h treatment; for DC50: Table 2, read-out: BaF3-LTC DC50; for Dmax: maximum percentage of degradation, Table 2, read-out: BaF3-LTC Dmax
Chain of EGFR L858R/T790M/C797S (BaF3-LTC cells) (P00533 25-1210 T790M/C797S/L858R): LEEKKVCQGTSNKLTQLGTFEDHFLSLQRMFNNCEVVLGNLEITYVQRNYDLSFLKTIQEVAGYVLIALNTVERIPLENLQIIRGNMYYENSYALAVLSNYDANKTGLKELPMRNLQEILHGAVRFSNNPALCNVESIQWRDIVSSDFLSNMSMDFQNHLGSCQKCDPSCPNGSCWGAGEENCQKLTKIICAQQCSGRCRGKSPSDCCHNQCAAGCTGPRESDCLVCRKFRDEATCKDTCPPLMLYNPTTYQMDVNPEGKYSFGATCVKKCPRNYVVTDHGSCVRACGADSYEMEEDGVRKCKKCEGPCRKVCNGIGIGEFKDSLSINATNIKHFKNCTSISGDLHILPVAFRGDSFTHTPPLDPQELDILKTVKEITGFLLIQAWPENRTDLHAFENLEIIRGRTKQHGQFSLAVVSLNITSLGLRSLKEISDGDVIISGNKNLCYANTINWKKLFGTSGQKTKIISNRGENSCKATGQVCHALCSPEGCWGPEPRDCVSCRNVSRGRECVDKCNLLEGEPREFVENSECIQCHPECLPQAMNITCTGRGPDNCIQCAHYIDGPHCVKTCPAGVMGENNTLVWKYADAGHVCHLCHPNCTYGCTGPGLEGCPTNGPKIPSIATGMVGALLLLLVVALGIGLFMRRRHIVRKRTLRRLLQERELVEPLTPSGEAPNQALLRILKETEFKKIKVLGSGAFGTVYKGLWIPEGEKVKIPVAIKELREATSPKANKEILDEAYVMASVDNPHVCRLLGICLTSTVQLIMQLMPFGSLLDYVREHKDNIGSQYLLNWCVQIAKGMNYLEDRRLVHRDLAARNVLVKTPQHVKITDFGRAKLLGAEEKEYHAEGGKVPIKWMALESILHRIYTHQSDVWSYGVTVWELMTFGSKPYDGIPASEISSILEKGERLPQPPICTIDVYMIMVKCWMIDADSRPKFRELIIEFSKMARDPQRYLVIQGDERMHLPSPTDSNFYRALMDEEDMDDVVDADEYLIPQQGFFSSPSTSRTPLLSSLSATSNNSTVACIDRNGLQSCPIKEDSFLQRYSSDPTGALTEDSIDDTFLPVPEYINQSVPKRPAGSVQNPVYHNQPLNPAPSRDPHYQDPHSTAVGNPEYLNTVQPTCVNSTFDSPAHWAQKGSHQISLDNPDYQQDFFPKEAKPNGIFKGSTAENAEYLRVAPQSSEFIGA
Experimental: (§1) BaF3-LTC(L858R/T790M/C797S) and BaF3-DTC(Del19/T790M/C797S) cells are treated with compounds diluted in 0.2% DMSO cell culture medium and incubate for 16 h, 37° C., 5% CO2, H1975- #28 cells are treated with compounds diluted in 0.2% DMSO cell culture medium on day 2, incubate for 16 h, 37° C., 5% CO2. the final concentration of compounds in all assay is start with 10 uM, 5-fold dilution, total 8 doses were included.
(§2) After 16 h treatment, add HTRF lysis buffer to each well; seal the plate and incubate 1 hour at room temperature on a plate shaker; Once the cells are lysed, 16 μL of cell lysate are transferred to a PE 384-well HTRF detection plate; 4 μL of pre-mixed HTRF antibodies are added to each well; Cover the plate with a plate sealer, spin 1000 rpm for 1 min, Incubate overnight at room temperature; Read on BMG PheraStar with HTRF protocol (337 nm-665 nm-620 nm).
(§3) The IC50 (DC50) value of a compound can be obtained by fitting the following equation
(§4) Y=Bottom+(TOP−Bottom)/(1+((IC50/X)^hillslope))
(§5) Wherein, X and Y are known values, and IC50, Hillslope, Top and Bottom are the parameters obtained by fitting with software. Y is the inhibition percentage (calculated from the equation), X is the concentration of the compound; IC50 is the concentration of the compound when the 50% inhibition is reached. The smaller the IC50 value is, the stronger the inhibitory ability of the compound is. Vice versa, the higher the IC50 value is, the weaker the ability the inhibitory ability of the compound is; Hillslope represents the slope of the fitted curve, generally around 1*; Bottom represents the minimum value of the curve obtained by data fitting, which is generally 0%±20%; Top represents the maximum value of the curve obtained by data fitting, which is generally 100%±20%. The experimental data were fitted by calculating and analyzing with Dotmatics data analysis software.

[2] = tested on: EGFR Del19/T790M/C797S (H1975-clone #28 cells); assay: EGFR degradation HTRF assay in H1975-clone #28 cells; assay type: cell-based; conditions: H1975-clone #28(Del19/T790M/C797S) cells, 16 h treatment, Table 2; for DC50: read-out: H1975 # 28 DTC DC50; for H1975 # 28 DTC Dmax: maximum percentage of degradation
Experimental: H1975-clone #28(Del19/T790M/C797S) was stably expressed in H1975 cell lines (from ATCC) by lentivirus-mediated over-expression. The EGFR over-expressed cells then underwent gene knockout, in which the EGFR targeting sgRNA was designed to only target the endogenous EGFR copies and preserve the exogenous EGFR copies. Followed by the gene knockout, the edited H1975 cells were seeded in 96 well plates at the concentration of […], cultured for about 2 weeks to allow single clones formation. The formed clones were screened by DNA sequencing and whole exon sequencing analysis for the desired edition. H1975-clone #28 was finally confirmed as homozygous Del19/T790M/C797S EGFR clone
as §1, §2, §3, §4, §5

CCc1cc(Nc2ncc(Br)c(Nc3ccc4nc(C)ccc4c3P(C)(C)=O)n2)c(OC)cc1N1CCC(N2CCN(C(=O)[C@@H]3CCN(c4ccc([C@H]5CCC(=O)NC5=O)cc4)C3)CC2)CC1 [Example 28, (R)-3-(4-((R)-3-(4-(1-(4-((5-bromo-4-((5-(dimethylphosphoryl)-2-methylquinolin-6-yl)amino)pyrimidin-2-yl)amino)-2-ethyl-5-methoxyphenyl)piperidin-4-yl)piperazine-1-carbonyl)pyrrolidin-1-yl)phenyl)piperidine-2,6-dione]
DC50 [1]: 7.8 nM | DC50 [2]: 0.595 nM | H1975 # 28 DTC Dmax [2]: 62.25%

CCc1cc(Nc2ncc(Br)c(Nc3ccc4nc(C)ccc4c3P(C)(C)=O)n2)c(OC)cc1N1CCC(N2CCN(C(=O)[C@@H]3CCN(c4ccc([C@@H]5CCC(=O)NC5=O)cc4)C3)CC2)CC1 [Example 29, (S)-3-(4-((R)-3-(4-(1-(4-((5-bromo-4-((5-(dimethylphosphoryl)-2-methylquinolin-6-yl)amino)pyrimidin-2-yl)amino)-2-ethyl-5-methoxyphenyl)piperidin-4-yl)piperazine-1-carbonyl)pyrrolidin-1-yl)phenyl)piperidine-2,6-dione]
DC50 [1]: 85.4 nM | Dmax [1]: 77.1% | DC50 [2]: > 10000 nM | H1975 # 28 DTC Dmax [2]: −4.12%

CCc1cc(Nc2ncc(Br)c(Nc3ccc4nc(C)ccc4c3P(C)(C)=O)n2)c(OC)cc1N1CCC(N2CCN(C(=O)[C@@H]3CCN(c4cc(F)c([C@H]5CCC(=O)NC5=O)c(F)c4)C3)CC2)CC1 [Example 22, (R)-3-(4-((R)-3-(4-(1-(4-((5-bromo-4-((5-(dimethylphosphoryl)-2-methylquinolin-6-yl)amino)pyrimidin-2-yl)amino)-2-ethyl-5-methoxyphenyl)piperidin-4-yl)piperazine-1-carbonyl)pyrrolidin-1-yl)-2,6-difluorophenyl)piperidine-2,6-dione]
DC50 [1]: 5.23 nM | DC50 [2]: 1.17 nM | H1975 # 28 DTC Dmax [2]: 84.8%

CCc1ccc2c(P(C)(C)=O)c(Nc3nc(Nc4cc(CC)c(N5CCC(N6CCN(C(=O)[C@@H]7CCN(c8cc(F)c([C@H]9CCC(=O)NC9=O)c(F)c8)C7)CC6)CC5)cc4OC)ncc3Br)ccc2n1 [Example 24, (R)-3-(4-((R)-3-(4-(1-(4-((5-bromo-4-((5-(dimethylphosphoryl)-2-ethylquinolin-6-yl)amino)pyrimidin-2-yl)amino)-2-ethyl-5-methoxyphenyl)piperidin-4-yl)piperazine-1-carbonyl)pyrrolidin-1-yl)-2,6-difluorophenyl)piperidine-2,6-dione]
DC50 [1]: 8.99 nM | DC50 [2]: 1.37 nM | H1975 # 28 DTC Dmax [2]: 82.72%

CCc1ccc2c(P(C)(C)=O)c(Nc3nc(Nc4cc(CC)c(N5CCC(N6CCN(C(=O)[C@@H]7CCN(c8cc(F)c([C@@H]9CCC(=O)NC9=O)c(F)c8)C7)CC6)CC5)cc4OC)ncc3Br)ccc2n1 [Example 25, (S)-3-(4-((R)-3-(4-(1-(4-((5-bromo-4-((5-(dimethylphosphoryl)-2-ethylquinolin-6-yl)amino)pyrimidin-2-yl)amino)-2-ethyl-5-methoxyphenyl)piperidin-4-yl)piperazine-1-carbonyl)pyrrolidin-1-yl)-2,6-difluorophenyl)piperidine-2,6-dione]
DC50 [1]: 360 nM | Dmax [1]: 57.2% | DC50 [2]: > 10000 nM | H1975 # 28 DTC Dmax [2]: −8.4%

CCc1cc(Nc2ncc(Br)c(Nc3ccc4nc(C)ccc4c3P(C)(C)=O)n2)c(OC2CC2)cc1N1CCC(N2CCN(CCc3cc(F)c([C@H]4CCC(=O)NC4=O)c(F)c3)CC2)CC1 [Example 26, (R)-3-(4-(2-(4-(1-(4-((5-bromo-4-((5-(dimethylphosphoryl)-2-methylquinolin-6-yl)amino)pyrimidin-2-yl)amino)-5-cyclopropoxy-2-ethylphenyl)piperidin-4-yl)piperazin-1-yl)ethyl)-2,6-difluorophenyl)piperidine-2,6-dione]
DC50 [2]: 0.851 nM | H1975 # 28 DTC Dmax [2]: 86.08%
